Assay results from US5080904A, “Liposome composition and its production” (Takeda Chemical Industries, Ltd., priority 1989, dated 1992).

Assay: Phase transition temperature of the lipid
Assay type: physicochemical
Settings: not given

Compound | phase transition temperature (found value) of phospholipid
CCCCCCCCCCCCCC(=O)OC[C@H](COP(=O)([O-])OCC[N+](C)(C)C)OC(=O)CCCCCCCCCCCCC [DMPC, dimyristoylphosphatidylcholine] | 23.9 °C
CCCCCCCCCCCCCC(=O)OCC(COP(=O)(O)OCCN)OC(=O)CCCCCCCCCCCCC (centres unmarked) [DMPE, dimyristoylphosphatidylethanolamine] | 50 °C
CCCCCCCCCCCCCC(=O)OCC(COP(=O)(O)OCC(O)CO)OC(=O)CCCCCCCCCCCCC (centres unmarked) [DMPG, dimyristoylphosphatidylglycerol] | 23 °C
CCCCCCCCCCCCCC(=O)OCC(COP(=O)(O)OCC(N)C(=O)O)OC(=O)CCCCCCCCCCCCC (centres unmarked) [DMPS, dimyristoylphosphatidylserine] | 38 °C
CCCCCCCCCCCCCCCC(=O)OC[C@H](COP(=O)([O-])OCC[N+](C)(C)C)OC(=O)CCCCCCCCCCCCCCC [DPPC, dipalmitoylphosphatidylcholine] | 41.4 °C
CCCCCCCCCCCCCCCC(=O)OCC(COP(=O)(O)OCCN)OC(=O)CCCCCCCCCCCCCCC (centres unmarked) [DPPE, dipalmitoylphosphatidylethanolamine] | 60 °C
CCCCCCCCCCCCCCCC(=O)OCC(COP(=O)(O)OCC(O)CO)OC(=O)CCCCCCCCCCCCCCC (centres unmarked) [DPPG, dipalmitoylphosphatidylglycerol] | 41 °C
CCCCCCCCCCCCCCCC(=O)OCC(COP(=O)(O)OCC(N)C(=O)O)OC(=O)CCCCCCCCCCCCCCC (centres unmarked) [DPPS, dipalmitoylphosphatidylserine] | 51 °C
CCCCCCCCCCCCCCCCCC(=O)OCC(COP(=O)([O-])OCC[N+](C)(C)C)OC(=O)CCCCCCCCCCCCCCCCC (centres unmarked) [DSPC, distearoylphosphatidylcholine] | 54.9 °C
CCCCCCCCCCCCCCCCCC(=O)OCC(COP(=O)(O)OCCN)OC(=O)CCCCCCCCCCCCCCCCC (centres unmarked) [DSPE, disteraroylphosphatidylethanolamine] | over 60 °C
CCCCCCCCCCCCCCCCCC(=O)OCC(COP(=O)(O)OCC(O)CO)OC(=O)CCCCCCCCCCCCCCCCC (centres unmarked) [DSPG, distearoylphosphatidylglycerol] | 55 °C
CCCCCCCCCCCCCCCCCC(=O)OCC(COP(=O)(O)OCC(N)C(=O)O)OC(=O)CCCCCCCCCCCCCCCCC (centres unmarked) [DSPS, distearoylphosphatidylserine] | over 50 °C
CCCCCCCCCCCCCCCC(=O)OC[C@H](COP(=O)([O-])OCC[N+](C)(C)C)OC(=O)CCCCCCCCCCCCC [PMPC, palmitoylmyristoylphosphatidylcholine] | 27.2 °C
CCCCCCCCCCCCCCCCCC(=O)O[C@H](COC(=O)CCCCCCCCCCCCCCC)COP(=O)([O-])OCC[N+](C)(C)C [PSPC, palmitoylstearoylphosphatidylcholine] | 47.4 °C
CCCCCCCCCCCCCCCCCC(=O)OC[C@H](COP(=O)([O-])OCC[N+](C)(C)C)OC(=O)CCCCCCCCCCCCCCC [SPPC, stearoylpalmitoylphosphatidylcholine] | 44.0 °C
dipalmitoylsphingomyelin [DPSM] | 41 °C
distearoylsphingomyelin [DSSM] | 57 °C
myristoylpalmitoylphosphatidylcholine [MPPC] | 35.3 °C

Assay: not given
Settings: Biochemica et Biophysica Acta, 859, 246-256 (1986); cited from earlier work

Compound | phase transition temperature of sulfatide, first value | phase transition temperature of sulfatide, second value
sulfatide | 34.8 °C | 47.3 °C
